Reference: PubChem BioAssay AID1745844 (Carcinogenic Potency Database (CPDB), 2022)
Activity calls are given as the source filed them. No rule for the calls is given here.

System: rodent lifetime carcinogenesis bioassay, tumor incidence TD50
Assay: chronic cancer bioassays in animals – CPDB, compiled studies (AID 1745844)

CC(Oc1cc(Cl)ccc1Cl)C(=O)O (stereo not drawn)
inactive: carcinogen call (mouse, strain B6AKF1, females, oral dosing, site: any site (literature study), lesion: several types, types named in the paper, dosed 76 weeks, study length 76 weeks) negative | carcinogen call (mouse, strain B6AKF1, females, oral dosing, site: liver, lesion: hepatoma, dosed 76 weeks, study length 76 weeks) negative | carcinogen call (mouse, strain B6AKF1, females, oral dosing, site: lung, lesion: adenoma, dosed 76 weeks, study length 76 weeks) negative | carcinogen call (mouse, strain B6AKF1, males, oral dosing, site: any site (literature study), lesion: several types, types named in the paper, dosed 76 weeks, study length 76 weeks) negative | carcinogen call (mouse, strain B6AKF1, males, oral dosing, site: liver, lesion: hepatoma, dosed 76 weeks, study length 76 weeks) negative | carcinogen call (mouse, strain B6AKF1, males, oral dosing, site: lung, lesion: adenoma, dosed 76 weeks, study length 76 weeks) negative | carcinogen call (mouse, strain B6C3F1, females, oral dosing, site: any site (literature study), lesion: one or several types, types not named, dosed 76 weeks, study length 76 weeks) negative | carcinogen call (mouse, strain B6C3F1, females, oral dosing, site: liver, lesion: hepatoma, dosed 76 weeks, study length 76 weeks) negative | carcinogen call (mouse, strain B6C3F1, females, oral dosing, site: lung, lesion: several types, types named in the paper, dosed 76 weeks, study length 76 weeks) negative | TD50 (mouse, strain B6C3F1, males, oral dosing, site: any site (literature study), lesion: several types, types named in the paper, dosed 76 weeks, study length 76 weeks) 10.5 mg/kg/day | TD50 (mouse, strain B6C3F1, males, oral dosing, site: liver, lesion: hepatoma, dosed 76 weeks, study length 76 weeks) 36.7 mg/kg/day | TD50 (mouse, strain B6C3F1, males, oral dosing, site: lung, lesion: adenoma, dosed 76 weeks, study length 76 weeks) 36.7 mg/kg/day

CN1CCC[C@H]1c1cccnc1
inactive: carcinogen call (mouse, strain Swiss albino, females, in drinking water, site: liver, lesion: several types, types named in the paper, dosed 121 weeks, study length 123 weeks) negative | TD50 (mouse, strain Swiss albino, females, in drinking water, site: lung, lesion: one or several types, types not named, dosed 121 weeks, study length 123 weeks) 11100 mg/kg/day | carcinogen call (mouse, strain Swiss albino, males, in drinking water, site: liver, lesion: several types, types named in the paper, dosed 114 weeks, study length 120 weeks) negative | carcinogen call (mouse, strain Swiss albino, males, in drinking water, site: lung, lesion: one or several types, types not named, dosed 114 weeks, study length 120 weeks) negative | carcinogen call (rat, strain Sprague-Dawley, females, i.p., site: any site (literature study), lesion: malignant tumor, dosed 104 weeks, study length 104 weeks) negative | TD50 (rat, strain Sprague-Dawley, males, i.p., site: any site (literature study), lesion: malignant tumor, dosed 104 weeks, study length 104 weeks) 6.38 mg/kg/day
